According to patent US20140343145A1, “RBP1 as a Molecular Biomarker for Predicting Survival and Response to Treatment in Glioma” (The Regents of the University of California, priority 2011, published 2014):
“Also recorded” adds a separate entry of the source.

Key:
[1] = test system: primary glioblastoma multiforme patients; assay: Kaplan-Meier analysis of overall survival in the GBM Survival Cohort (124 primary glioblastoma patients) by RBP1 methylation and isotretinoin treatment; assay type: in vivo, human
Excerpt: FIGS. 10A-10B show the Kaplan-Meier analysis of overall survival (OS) in a cohort of 124 primary glioblastoma mulitforme patients with respect to RBP1 methylation and isotretinoin (ITR) treatment. FIG. 10A provides RBP1-unmethylated patients treated (solid, n=19) vs untreated with isotretinoin (dotted, n=83). FIG. 10B provides RBP1-methylated patients treated (solid, n=7) and untreated with isotretinoin (dotted, n=15). RBP1=retinol binding protein 1; WT=wild-type; MUT=mutant; ITR=isotretinoin.
Within the 198-patient Total Cohort, 124 samples that were obtained from treatment-naïve primary GBM patients with detailed clinical information were retrospectively identified. Patients were treated with a combination of radiation (RT) and temozolomide (TMZ) after surgical resection (Stupp R, et al. N Engl J Med 2005; 352(10):987-96). Overall survival (OS) was defined as the date of diagnosis to date of death from any cause. For patients lost to follow-up without obtainable date of death, censoring date was last clinic visit or contact. If the last clinic or contact was after the Sep. 9, 2011 freeze date, the patient was censored at […]. […]
Correlation between IDH1 mutation and RBP1 methylation was determined using the Spearman correlation test. […]

[2] = test system: patients with primary glioblastoma; assay: Kaplan-Meier analysis of overall survival in a preliminary cohort of 414 primary glioblastoma patients, with or without upfront isotretinoin; assay type: in vivo, human
Procedure: Survival for an unpublished preliminary cohort of 414 patients with primary glioblastoma were analyzed with Kaplan-Meier analysis. Survival curves for patients with wild-type or IDH1/2 mutant genotypes with or without upfront treatment with isotretinoin, in combination with standard-of-care debulking surgery, temozolomide, and radiation therapy, are shown. […] WT=wild-type, MUT=IDH1 MUT, ITR=isotretinoin (13-cis retinoic acid).
Specifically, the median overall survival for IDH1 mutant glioblastoma patients treated with isotretinoin was 81 months as compared with 36 months for similar IDH1 mutant glioblastoma patients who were not treated with isotretinoin. […] Therefore, in some embodiments, the present invention is directed to methods of treating IDH1/IDH2 mutant gliomas in subjects, which comprise administering to the subjects having been diagnosed with an IDH1 and/or an IDH2 mutation and/or RBP1 promoter hypermethylation one or more retinoids.

[3] = test system: unselected glioma patients; settings: patients not selected for any biomarker/mutation (Yung 1996); cited from earlier work

## CC1=C(/C=C/C(C)=C/C=C/C(C)=C\C(=O)O)C(C)(C)CCC1 [isotretinoin, 13-cis retinoic acid]
[1]; RBP1-methylated primary GBM patients who received isotretinoin (n=7), untreated 36.7 months, P=0.53
  median OS (overall survival): 82.5 months
[1]; RBP1-unmethylated primary GBM patients who received adjuvant isotretinoin with temozolomide (n=19), untreated 19.8 months, P=0.25
  median OS (overall survival): 22.0 months
[2]; IDH1 mutant glioblastoma patients treated with isotretinoin, 36 months for similar patients not treated
  median overall survival: 81 months
[2]; upfront isotretinoin with standard-of-care debulking surgery, temozolomide and radiation, patients with IDH1 or IDH2 mutant glioblastoma
  effect on overall survival, IDH1/IDH2 mutant glioblastoma: significantly improve the overall survival; also recorded: significantly increased overall survival
[2]; upfront isotretinoin with standard-of-care debulking surgery, temozolomide and radiation, patients with wild-type tumors (WT)
  effect on overall survival, wild-type tumors: only modest increase in overall survival
[3]
  efficacy in unselected glioma patients: little to only modest efficacy
